Entries after “also recorded” stand apart in the source; their conditions may differ.
Key:
MCF7 (ER+,HER2−) = test: Proliferation assay, aromatase expressing MCF7 clones; format: cell-based, Human; settings: for IC50: Homo sapiens; for proliferation response to increasing doses (fold change): MCF7 aromatase clones, versus DCC medium alone (E2, androstenedione) or androstenedione alone (4-OH tamoxifen, letrozole)
Description: (§1) Human breast cancer cell lines with varying expression of ER and HER2 were engineered to express aromatase. The cell lines were MCF7 (ER+,HER2−), ZR75.1 (ER+,HER2+), BT474 (ER+, HER2++) and SKBR3 (ER−, HER2++).
(§2) Proliferation assays were carried out as follows. The target cell lines listed above were cultured in phenol red-free RPMI 1640 medium containing 10% charcoal stripped foetal calf serum and 10[…]g.ml insulin (DCC medium), with daily changes for 3 days. The cell lines were then seeded in to 12-well plates at an appropriate density (MCF7 1×10^4/well, ZR75.1 2×10^4/well, BT474 2×10^4/well, SKBR3 1×10^4/well). After 24-48 hours, the cell monolayers were treated with increasing concentrations of androstenedione or E2. […] Drug treatments were changed daily over a period of 6 days. Cell number was determined using a Z1 Coulter Counter (Beckman Coulter, UK). With the threshold set at 15 μm diameter, 75% the average 20 μm size of MCF7 cells.

ZR75.1 (ER+,HER2+) = test: Proliferation assay, aromatase expressing ZR75.1 clones; format: cell-based, Human; settings: for IC50: Homo sapiens; for proliferation response to increasing doses (fold change): ZR75.1 aromatase clones, versus DCC medium alone (E2, androstenedione) or androstenedione alone (4-OH tamoxifen, letrozole)
Description: as §1, §2

ZR75.1 tumour xenografts = test: Growth of ZR75.1 tumour xenografts in vivo; parameters: species or system Mice; settings: ZR75.1A3 xenografts under androstenedione, p.o.
Description: Experimental study groups consisted of 6 animals. All tumours were grown to approximately 7 mm diameter under E2 support. Once the tumours were established, the E2 pellet was removed and replaced with androstenedione. Mice were then randomised into cages and treated as described below. Tumours were assessed twice weekly by bi-dimensional caliper measurements and volume calculated based on the volume of a sphere 4/3 […]. Data was expressed as fold change in tumour volume compared to day zero treatment for each treatment group.
Effect of 6-[4-(4-ethyl-piperazin-1-ylmethyl)-phenyl]-7H-pyrrolo[2,3-d]pyrimidin-4-yl}-(1-[phenyl-ethyl)-amine in combination with endocrine therapy was investigated in ZR75.1A3.
Groups: • (i) Vehicle (10% N-methyl-pyrollidone (NMP)/90% polyethylene glycol (PEG 300)).

[1] = tested on: ER-α-mediated transcription; test: ERα transactivation luciferase reporter assay (pEREtkIIluc); format: cell-based, Human
Description: ERα transactivation was monitored using a standard reporter construct consisting of two EREs upstream of a minimal thymidine kinase reporter linked to a gene encoding luciferase (pEREtkIIluc). Activity was normalized using a second plasmid consisting of the β-galactosisdase gene downstream of the constitutively active simian virus 40 promoter (SV40)(pCH110). The target cell lines indicated, were cultured in DCC medium as described previously. Cells were then seeded into 24-well plates at a density of 7×10^5 cells/well (MCF7, ZR75.1 and SKBR3). The following day the cells were transfected by lipofectin (Life Technologies, Inc.) at a ratio of 1:2.5 (DNA:lipid) with 0.25 μg of EREIItkluc and 0.25 μg of pCH110 for 4 hours in serum-free phenol red-free RPMI 1640 medium. The cells were subsequently placed in DCC medium and left to recover overnight. BT474 cells were treated similarly but with the exception that cells were seeded at a density of 1×10^5 cells/well and monolayers were transfected by lipofectamine 2000 (Life Technologies, Inc.) at a ratio of 1:2.5 with 0.4 μg pEREtkIIluc and 0.4 μg pCH110 per well for 4 hours. […] After treatment for 24 hours, the luciferase (Promega, UK) and β-galactosidase (Galacton Star, PE Biosystems, UK) activity were measured using a luminometer.

total or pHER2 = test: Western blot of HER2 signal transduction: HER2; format: cell-based, Human; settings: 0.1, 1 and 10 μM, 8 hours
Description: (§3) Western Blot analysis of the effect of 6-[4-(4-ethyl-piperazin-1-ylmethyl)-phenyl]-7H-pyrrolo[2,3-d]pyrimidin-4-yl}-(1-[phenyl-ethyl)-amine on HER2 signal transduction.
(§4) Target cell lines were stripped of steroid for 3 days in DCC medium prior to seeding at a density of 1.5-2×10^6 cells per 10 cm dish. Monolayers were left to acclimatize for 24 hours prior to treatment with 0, 0.1, 1 and 10 μM 6-[4-(4-ethyl-piperazin-1-ylmethyl)-phenyl]-7H-pyrrolo[2,3-d]pyrimidin-4-yl}-(1-[phenyl-ethyl)-amine in DCC medium for 8 hours. […] The protein concentration was then quantified using BioRad protein assay kit (Bio Rad, UK). […] Filters were blocked (10 mM Tris-HCl, pH 8.3, 150 mM NaCl containing 4% milk powder) washed twice in PBS containing 0.025% Tween-20 and probed with specific antibodies (p HER2 and total HER2 (Upstate, UK), pAKT, total AKT, pMAPK and total MAPK (Cell signaling, UK) and HRP-conjugated secondary antibody (Amersham Pharmacia Biotech, UK). The antibodies were diluted 1/1000 in 1.5% bovine serum albumin, 10 mM Tris-HCl, pH 8.3, 150 mM NaCl, 0.025% Tween-20 and 0.01% sodium azide. Immuno complexes were detected using Ultra-Signal chemiluminescence kit (Pierce and Warriner, UK). Chemiluminescence was quantified using Fluro-S and analysed using Quantity One software (BioRad, UK).

BT474 (ER+, HER2++) = test: Proliferation assay, aromatase expressing BT474 clones; format: cell-based, Human; settings: for IC50: Homo sapiens; for proliferation response to increasing doses (fold change): BT474 aromatase clones, versus DCC medium alone (E2, androstenedione) or androstenedione alone (4-OH tamoxifen, letrozole)
Description: as §1, §2

pMAPK = test: Western blot of HER2 signal transduction: MAPK; format: cell-based, Human; settings: 0.1, 1 and 10 μM, 8 hours
Description: as §3, §4

BT474 A3 = test: Cell cycle FACS analysis (propridium iodide), BT474 A3; format: cell-based, Human; settings: BT474 A3, androstenedione, 72 hours
Description: (§5) Cell lines were depleted of steroid for 3 days in DCC medium then seeded in 10 cm dishes at a density of 1×10^6 cells. After 48 hours, appropriate monolayers were pretreated with 6-[4-(4-ethyl-piperazin-1-ylmethyl)-phenyl]-7H-pyrrolo[2,3-d]pyrimidin-4-yl}-(1-[phenyl-ethyl)-amine for 1 hour in DCC medium. […] In the case of MCF7 and ZR75.1 the 6-[4-(4-ethyl-piperazin-1-ylmethyl)-phenyl]-7H-pyrrolo[2,3-d]pyrimidin-4-yl}-(1-[phenyl-ethyl)-amine concentration was increased to 5 μM. Cell were treated for 72 hours then fixed with 70% ethanol and stained with Propridium iodide. FACS analysis was used to establish the effect of the drug combinations on cell cycle.

MCF7A2 cell line = test: Cell cycle FACS analysis (propridium iodide), MCF7A2; format: cell-based, Human; settings: MCF7A2, androstenedione, 72 hours
Description: as §5

pAKT = test: Western blot of HER2 signal transduction: AKT; format: cell-based, Human; settings: all of the cell lines tested; 0.1, 1 and 10 μM, 8 hours
Description: as §3, §4

SKBR3 (ER−, HER2++) = test: Proliferation assay, SKBR3 clones; format: cell-based; settings: Homo sapiens, SK-BR-3; effect on proliferation, fold change compared to DCC medium alone
Description: as §1
as §2, with “cells. Cell counts were averaged for each triplicate treatment and normalised against the control sample to give the average fold-difference in cell growth.” for “cells.”

Structure (SMILES) | tumour growth / tumour volume (fold change compared to day zero) (ZR75.1 tumour xenografts) | number of cells in G0/G1 (BT474 A3) | number of cells in G0/G1 (MCF7A2 cell line) | proliferation response to increasing doses (fold change) (MCF7 (ER+,HER2−)) | proliferation response to increasing doses (fold change) (ZR75.1 (ER+,HER2+)) | ER-α-mediated transcription ([1]; ER+ cell lines) | proliferation response to increasing doses (fold change) (BT474 (ER+, HER2++)) | also measured
CCN1CCN(Cc2ccc(-c3cc4c(N[C@H](C)c5ccccc5)ncnc4[nH]3)cc2)CC1 [{6-[4-(4-ethyl-piperazin-1-ylmethyl)-phenyl]-7H-pyrrolo[2,3-d]pyrimidin-4-yl}-(1-[phenyl-ethyl)-amine] | modest inhibitory effect on tumour growth in the magnitude of that seen with tamoxifen | more effective than tamoxifen at arresting cells in G0/G1 | increase in the number of cells in G0/G1 |  |  |  |  | IC50 (MCF7 (ER+,HER2−); MCF7, effect on proliferation, fold change compared to DCC medium alone): 5000 to 10000 nM; IC50 (ZR75.1 (ER+,HER2+); ZR-75-1, effect on proliferation, fold change compared to DCC medium alone): 2000 to 5000 nM; ER-α-mediated transcription ([1]; cell line BT474 (ER+, HER2++), basal and AND-induced): dose dependent decrease; ER-mediated transcription ([1]; cell lines expressing low levels of HER2 (MCF7 and ZR75.1)): little effect; effect on total or pHER2 (total or pHER2): no obvious effect on total or pHER2; IC50 (BT474 (ER+, HER2++); BT-474, effect on proliferation, fold change compared to DCC medium alone): 500 nM; effect on pMAPK (pMAPK; MCF7 cells): no effect on MCF7 cells; effect on pMAPK (pMAPK; ZR75.1, BT474 and SKBR3 cell lines): decrease of pMAPK; effect on pAKT (pAKT): decreased in a dose dependent manner; IC50 (SKBR3 (ER−, HER2++)): 1500 nM
C[C@]12CC[C@@H]3c4ccc(O)cc4CC[C@H]3[C@@H]1CC[C@@H]2O [E2] |  |  |  | dose dependent increase in proliferation | dose dependent increase in proliferation | increased ER-[…]-mediated transcription in a dose-dependent manner | dose dependent increase in proliferation | 
N#Cc1ccc(C(c2ccc(C#N)cc2)n2cncn2)cc1 [Letrozole, 4-[α-(4-cyanophenyl)-1-(1,2,4-triazolyl)methyl]-benzonitrile] | markedly inhibited; also recorded: more effective than 4-OH tamoxifen alone or in combination with AEE788 | more effective than tamoxifen at arresting cells in G0/G1 | increase in the number of cells in G0/G1 | dose dependent decrease in proliferation | dose dependent decrease in proliferation | inhibited | dose dependent decrease in proliferation | IC50 (MCF7 (ER+,HER2−); MCF7, 144 h, inhibition of proliferation, aromatase expressing clones, androstenedione, 6 days): 5 nM; IC50 (ZR75.1 (ER+,HER2+); ZR-75-1, 144 h, inhibition of proliferation, aromatase expressing clones, androstenedione, 6 days): 1 nM; IC50 (BT474 (ER+, HER2++); BT-474, 144 h, inhibition of proliferation, aromatase expressing clones, androstenedione, 6 days): 5 nM
CC/C(=C(\c1ccc(O)cc1)c1ccc(OCCN(C)C)cc1)c1ccccc1 [4-OH tamoxifen] | as affective as AEE788 |  |  | dose dependent decrease in proliferation | dose dependent decrease in proliferation |  | dose dependent decrease in proliferation | 
CC/C(=C(\c1ccccc1)c1ccc(OCCN(C)C)cc1)c1ccccc1 [Tamoxifen] |  |  | increase in the number of cells in G0/G1 |  |  | inhibited |  | 
C[C@]12CCC(=O)C=C1CC[C@@H]1[C@@H]2CC[C@]2(C)C(=O)CC[C@@H]12 [androstenedione] |  |  |  | dose dependent increase in proliferation | dose dependent increase in proliferation | increased ER-[…]-mediated transcription in a dose-dependent manner | dose dependent increase in proliferation | 

— patent US20060148772A1, “Combination” (priority 2004, published 2006)
